How the values were obtained:
Experiment in all cases: relative viability (nuclei count vs DMSO), 5 days (fraction); higher = more cells survive
NCI-H1395 = system: NCI-H1395
In short: (§1)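 Values are medians from duplicate plates. Each reflects relative viability, defined as the nuclei count of treated wells over that of vehicle wells. Lung cancer cell lines in 1536-well plates were pin-tool dosed one day after seeding with one drug alone or with a fixed anchor-drug dose plus five library-drug doses (not always all listed) in √10 steps, then fixed, stained and imaged at 4× after 5 days.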

RERF-LC-KJ = system: RERF-LC-KJ
In short: as §1

NCI-H1437 = system: NCI-H1437
In short: as §1

NCI-H2405 = system: NCI-H2405
In short: as §1

NCI-H2023 = system: NCI-H2023
In short: as §1

HOP-62 = system: HOP-62
In short: as §1

NCI-H647 = system: NCI-H647
In short: as §1

LCLC-97TM1 = system: LCLC-97TM1
In short: as §1

NCI-H3122 = system: NCI-H3122
In short: as §1

NCI-H1650 = system: NCI-H1650
In short: as §1

NCI-H1793 = system: NCI-H1793
In short: as §1

HCC-44 = system: HCC-44
In short: as §1

NCI-H322M = system: NCI-H322M
In short: as §1

HCC-827 = system: HCC-827
In short: as §1

SK-LU-1 = system: SK-LU-1
In short: as §1

LCLC-103H = system: LCLC-103H
In short: as §1

NCI-H727 = system: NCI-H727
In short: as §1

NCI-H1355 = system: NCI-H1355
In short: as §1

LXF-289 = system: LXF-289
In short: as §1

NCI-H2087 = system: NCI-H2087
In short: as §1

BEN = system: BEN
In short: as §1

201T = system: 201T
In short: as §1

CC(C)Oc1cc(Nc2nc(N[C@@H](C)c3ccc(F)cn3)ncc2Cl)n[nH]1 [AZ23] + Nc1ncn([C@H]2C[C@H](O)[C@@H](CO)O2)c(=O)n1 [Decitabine] (partner 2 µM)
relative viability (NCI-H1395; first compound 0.03162 µM): 0.713
relative viability (NCI-H1395; first compound 0.3162 µM): 0.704
relative viability (RERF-LC-KJ; first compound 0.01 µM): 0.783
relative viability (RERF-LC-KJ; first compound 0.03162 µM): 0.74
relative viability (RERF-LC-KJ; first compound 0.3162 µM): 0.817
relative viability (NCI-H1437; first compound 0.01 µM): 0.57
relative viability (NCI-H1437; first compound 0.03162 µM): 0.552
relative viability (NCI-H1437; first compound 0.3162 µM): 0.56
relative viability (NCI-H2405; first compound 0.01 µM): 0.774
relative viability (NCI-H2405; first compound 0.03162 µM): 0.805
relative viability (NCI-H2405; first compound 0.3162 µM): 0.721
relative viability (NCI-H2023; first compound 0.03162 µM): 0.259
relative viability (NCI-H2023; first compound 0.3162 µM): 0.239
relative viability (HOP-62; first compound 0.01 µM): 0.282
relative viability (HOP-62; first compound 0.03162 µM): 0.21
relative viability (HOP-62; first compound 0.3162 µM): 0.195
relative viability (NCI-H647; first compound 0.01 µM): 0.364
relative viability (NCI-H647; first compound 0.03162 µM): 0.415
relative viability (NCI-H647; first compound 0.3162 µM): 0.41
relative viability (LCLC-97TM1; first compound 0.01 µM): 0.273
relative viability (LCLC-97TM1; first compound 0.03162 µM): 0.212
relative viability (LCLC-97TM1; first compound 0.3162 µM): 0.233
relative viability (NCI-H3122; first compound 0.01 µM): 0.411
relative viability (NCI-H3122; first compound 0.03162 µM): 0.455
relative viability (NCI-H3122; first compound 0.3162 µM): 0.469
relative viability (NCI-H1650; first compound 0.01 µM): 0.421
relative viability (NCI-H1650; first compound 0.03162 µM): 0.41
relative viability (NCI-H1650; first compound 0.3162 µM): 0.481
relative viability (NCI-H1793; first compound 0.01 µM): 0.594
relative viability (NCI-H1793; first compound 0.03162 µM): 0.559
relative viability (NCI-H1793; first compound 0.3162 µM): 0.414
relative viability (HCC-44; first compound 0.01 µM): 1.03
relative viability (HCC-44; first compound 0.03162 µM): 0.973
relative viability (HCC-44; first compound 0.3162 µM): 0.979
relative viability (NCI-H322M; first compound 0.01 µM): 0.533
relative viability (NCI-H322M; first compound 0.03162 µM): 0.668
relative viability (NCI-H322M; first compound 0.3162 µM): 0.7
relative viability (HCC-827; first compound 0.01 µM): 0.361
relative viability (HCC-827; first compound 0.03162 µM): 0.316
relative viability (HCC-827; first compound 0.3162 µM): 0.323
relative viability (SK-LU-1; first compound 0.03162 µM): 0.651
relative viability (SK-LU-1; first compound 0.3162 µM): 0.643
relative viability (LCLC-103H; first compound 0.01 µM): 0.765
relative viability (LCLC-103H; first compound 0.03162 µM): 0.691
relative viability (LCLC-103H; first compound 0.3162 µM): 0.743
relative viability (NCI-H727; first compound 0.01 µM): 0.956
relative viability (NCI-H727; first compound 0.03162 µM): 0.945
relative viability (NCI-H727; first compound 0.3162 µM): 0.822
relative viability (NCI-H1355; first compound 0.01 µM): 0.377
relative viability (NCI-H1355; first compound 0.03162 µM): 0.366
relative viability (NCI-H1355; first compound 0.3162 µM): 0.333
relative viability (LXF-289; first compound 0.01 µM): 0.469
relative viability (LXF-289; first compound 0.03162 µM): 0.374
relative viability (LXF-289; first compound 0.3162 µM): 0.403
relative viability (NCI-H2087; first compound 0.01 µM): 0.303
relative viability (NCI-H2087; first compound 0.03162 µM): 0.265
relative viability (NCI-H2087; first compound 0.3162 µM): 0.237
relative viability (BEN; first compound 0.01 µM): 0.736
relative viability (BEN; first compound 0.03162 µM): 0.829
relative viability (BEN; first compound 0.3162 µM): 0.667
relative viability (201T; first compound 0.01 µM): 0.91
relative viability (201T; first compound 0.03162 µM): 0.875
relative viability (201T; first compound 0.3162 µM): 0.86

Source: the supplement of paper PMC10307832
